This note sets out measurements from ChEMBL document CHEMBL1148226, “Evidences for the formation of bisbenzamidine-heme complexes in cell-free systems” (Bioorg Med Chem Lett, 2004).

In assay [1] the test system is Plasmodium falciparum. Briefly: In vitro inhibitory concentration against chloroquine-sensitive Plasmodium falciparum; Not active. Format: functional, organism-based.
Assay [2] relates to Plasmodium falciparum. Briefly: In vitro inhibitory concentration against chloroquine-resistant Plasmodium falciparum; Not active. It is filed as functional, organism-based.

With `COc1ccc(N)cc1`, the IC50 entry in the assay with Plasmodium falciparum [1] and with Plasmodium falciparum [2] was “Not Active” throughout.

With `Nc1ccccc1` [ANILINE], the IC50 result in the assay with Plasmodium falciparum [1] and in the assay on Plasmodium falciparum [2] was “Not Active” in each case.

Take `CCOC(=O)c1ccc(N2CCN(c3ccc(C(=O)OCC)cc3)CC2)cc1`: the IC50 entry in the assay with Plasmodium falciparum [1] and with Plasmodium falciparum [2] was “Not Active” in each case.

Take `CN1CCN(C)C1c1ccc(N2CCN(c3ccc(C4N(C)CCN4C)cc3)CC2)cc1`: the IC50 result in the assay on Plasmodium falciparum [1] and with Plasmodium falciparum [2] was “Not Active” each time.

`Cl.N=C(N)c1ccc(N)cc1`: the IC50 entry in the assay with Plasmodium falciparum [1] and in the assay on Plasmodium falciparum [2] was “Not Active” each time.

With `CN` [METHYLAMINE], the IC50 entry with Plasmodium falciparum [1] and with Plasmodium falciparum [2] was “Not Active” throughout.
